According to patent US5215907A, “Thermostable acid protease from sulfolobus acidocaldarius” (Oklahoma Medical Research Foundation, priority 1992, dated 1993):
“Also recorded” adds a separate entry of the source. Numbered stars: 1 amine (or outer) side, 2 acyl side, 3 side chain; on linkers, the order of the positions; unused ones are H or OH. Peptide text beside a SMILES is read from it. CO = O=C([*:1])[*:2]

Molecular target: T1, thermopsin, thermostable acid protease purified from Sulfolobus acidocaldarius culture medium (Sulfolobus acidocaldarius, UniProt P17118)
T1 construct: The purification of thermopsin, therefore, was carried out using culture media as starting material; endogenous in cells; host or cells: Sulfolobus acidocaldarius (natural producer); enzyme purified in-house from the culture medium, not recombinant
T1 sequence (P17118 42-340): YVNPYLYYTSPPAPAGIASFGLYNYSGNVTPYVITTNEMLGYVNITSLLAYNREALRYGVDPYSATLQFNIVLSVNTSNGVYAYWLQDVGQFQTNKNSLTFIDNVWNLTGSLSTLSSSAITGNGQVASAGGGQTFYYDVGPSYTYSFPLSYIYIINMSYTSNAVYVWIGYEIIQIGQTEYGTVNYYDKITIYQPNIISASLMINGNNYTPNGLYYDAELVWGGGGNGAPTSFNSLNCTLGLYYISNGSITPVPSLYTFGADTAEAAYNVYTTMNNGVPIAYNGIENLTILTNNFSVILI
Assay: Effects of proteinase inhibitors on thermopsin proteolytic activity (14C-methylated hemoglobin assay)
Assay type: biochemical
Settings: no concentration stated; see Table II
Procedure: Proteolytic activity is routinely assayed using ^14 C-methylated bovine hemoglobin as substrate, as prepared according to the method of Lin, et al., J. Biol. Chem., (1989, in press). The assay mixture, containing 0.51% hemoglobin substrate and thermopsin in 0.1 ml of 0.1M sodium formate, pH 3.2, is placed in an Eppendorf tube. After incubation at 80° C. for a period of time between 5 to 30 min, depending on the level of activity of thermopsin used, an aliquot of 0.1 ml of 10% trichloracetic acid is added to stop the reaction and precipitate the protein. After removal of the precipitate by centrifugation, the radioactivity of an aliquot of the clear supernate is determined in a scintillation counter.
The effect of various protease inhibitors on the activity of thermopsin was tested.
Thermopsin is preincubated with the indicated level of inhibitor in 0.1 M
phosphate buffer, pH 6.0, containing 1 mM EDTA and DTT at 37° C.
for 5 min. Sodium formate (pH 3.2) and ^14 CHemoglobin is then added
to a concentration as described above. The enzyme assay is then carried
out at 80° C. for 15 min. Enzyme activity is expressed as percent

Compound | effect of inhibitor on thermopsin activity (in words)
CCCCC(NC(=O)C=[N+]=[N-])C(=O)OC (racemic) [DAN, diazoacetyl-DL-norleucinemethlyester] | not inactivated; also recorded: no effect
CC(C)[C@H](NC(=O)[C@H](CCCNC(=N)N)NC(=O)N[C@@H](Cc1ccccc1)C(=O)O)C(=O)N[C@H](C=O)CCCNC(=N)N [Antipain, antipain] ({Phe-CO}-Arg-Val-Arg-aldehyde) | inhibited; also recorded: significant inhibition
CCN1C(=O)C=CC1=O [N-ethylmaleimide] | little effect
O=S(=O)(F)Cc1ccccc1 [PMSF, phenylmethylsulfonyl fluoride] | significantly inactivate; also recorded: significant inhibition
Cc1ccc(S(=O)(=O)N[C@@H](CCCCN)C(=O)CCl)cc1 [TLCK, N-p-Tosyl-1-lysine chloromethyl ketone] | much less effective
Cc1ccc(S(=O)(=O)N[C@@H](Cc2ccccc2)C(=O)CCl)cc1 [TPCK, N-Tosyl-L-phenylalanine chloromethyl ketone] | significantly inactivate; also recorded: significant inhibition
